Test results: US8987249B2, “Substituted 2-Aza-bicyclo[2.2.1]heptane-3-carboxylic acid (benzyl-cyano-methyl)-amides inhibitors of Cathepsin C” (Boehringer Ingelheim International GmbH, priority 2013, dated 2015)

What was measured:
[1] = biological target: recombinant human Cathepsin K (Homo sapiens (Human), UniProt P43235); experiment: Inhibition of human Cathepsin K; type: biochemical; settings: substrate Z-Gly-Pro-Arg-AMC
Excerpt: Inhibition of Human Cathepsin K
Materials: Microtiterplates (Optiplate-384 F were purchased from PerkinElmer (Prod. No. 6007270). The substrate Z-Gly-Pro-Arg-AMC was from Biomol (Prod.-No. P-142). L-Cysteine (Prod. No. 168149) was from Sigma. Sodium acetate was from Merck (Prod.-No. 6268.0250), EDTA was from Fluka (Prod.-No. 03680). The inhibitor E-64 was purchased from Sigma (Prod.-No. E3132). The recombinant human Cathepsin K proenzyme was purchased from Biomol (Prod. No. SE-367). All other materials were of highest grade commercially available.
The following buffers were used: Activation buffer: 32.5 mM sodium acetate, adjusted to pH 3.5 with HCl; Assay buffer: 150 mM sodium acetate, 4 mM EDTA, 20 mM L-Cysteine, adjusted to pH 5.5 with HCl,
To activate the proenzyme, 5 μl procathepsin K were mixed with 1 ul activation buffer, and incubated at room temperature for 30 min.
5 μL test compound (final concentration 0.1 nM to 100 μM) in aqua bidest (containing 4% DMSO, final DMSO concentration 1%) were mixed with 10 uL of Cathepsin K in assay buffer (final concentration 2 ng/μL) and incubated for 10 min. […] The plates were then incubated at room temperature for 60 min. Then, the reaction was stopped by adding 10 μL of E64 in assay buffer (final concentration 1 μM). The fluorescence in the wells was determined using a Molecular Devices SpectraMax M5 Fluorescence Reader (Ex 360 nm, Em 460 nm).
Each assay microtiter plate contains wells with vehicle controls (1% DMSO in bidest) as reference for non-inhibited enzyme activity (100% Ctl; high values) and wells with inhibitor (E64 in bidest+1% DMSO, final concentration […]) as controls for background fluorescence (0% Ctl; low values). The analysis of the data was performed by calculating the percentage of fluorescence in the presence of test compound in comparison to the fluorescence of the vehicle control after subtracting the background fluorescence: (RFU(sample)−RFU(background))*100/(RFU(control)−RFU(background))
Data from these calculations were used to generate IC50 values for inhibition of Cathepsin K, respectively.

[2] = biological target: recombinant human DPPI (Cathepsin C) (Homo sapiens (Human), UniProt P53634); experiment: Inhibition of human DPPI (Cathepsin C); type: biochemical; settings: substrate Gly-Arg-AMC
recombinant human DPPI (Cathepsin C), sequence (P53634 231-394): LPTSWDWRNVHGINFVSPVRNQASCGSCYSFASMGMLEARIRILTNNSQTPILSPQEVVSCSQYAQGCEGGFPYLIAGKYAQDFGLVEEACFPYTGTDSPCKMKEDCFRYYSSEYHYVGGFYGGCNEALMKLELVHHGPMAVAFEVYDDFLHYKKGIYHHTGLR
recombinant human DPPI (Cathepsin C), sequence (P53634 395-463): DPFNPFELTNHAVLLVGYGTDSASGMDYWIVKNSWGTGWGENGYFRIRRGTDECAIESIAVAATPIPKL
recombinant human DPPI (Cathepsin C), sequence (P53634 25-134): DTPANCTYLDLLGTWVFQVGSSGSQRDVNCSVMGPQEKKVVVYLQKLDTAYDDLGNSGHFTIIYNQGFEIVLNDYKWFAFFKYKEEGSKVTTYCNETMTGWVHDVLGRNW
Method: Inhibition of Human DPPI (Cathepsin C)
Bovine serum albumin (BSA; Prod. No. A3059) and Dithiothreitol (DTT; Prod. No D0632) were from Sigma. […] The DPP1 inhibitor Gly-Phe-DMK was purchased from MP Biomedicals (Prod.-No. 03DK00625). The recombinant human DPPI was purchased from Prozymex. All other materials were of highest grade commercially available.
The following buffers were used: MES buffer: 25 mM MES, 50 mM NaCl, 5 mM DTT, adjusted to pH 6.0, containing 0.1% BSA; TAGZyme Buffer: 20 mM NaH2PO4, 150 mM NaCl adjusted to pH 6.0 with HCl
Then, 5 μL of substrate in MES buffer (final concentration 50 μM) were added. The microtiter plates were then incubated at room temperature for 30 min. Then, the reaction was stopped by adding 10 μL of Gly-Phe-DMK in MES-buffer (final concentration 1 μM).
The analysis of the data was performed by calculating the percentage of fluorescence in the presence of test compound in comparison to the fluorescence of the vehicle control after subtracting the background fluorescence using the following formula: (RFU(sample)−RFU(background))*100/(RFU(control)−RFU(background))
Data from these calculations were used to generate IC50 values for inhibition of DPPI, respectively.

recombinant human Cathepsin K, sequence (P43235 115-329): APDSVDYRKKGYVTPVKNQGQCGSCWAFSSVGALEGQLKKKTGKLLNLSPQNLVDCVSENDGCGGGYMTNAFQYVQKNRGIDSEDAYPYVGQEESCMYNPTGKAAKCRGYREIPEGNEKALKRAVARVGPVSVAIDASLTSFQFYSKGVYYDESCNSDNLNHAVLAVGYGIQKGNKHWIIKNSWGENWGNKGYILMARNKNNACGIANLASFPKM

Row | SMILES | IC50 [1] [nM] | IC50 [2] [nM]
1 | COc1ccccc1-c1cn(-c2ccc(C[C@@H](C#N)NC(=O)[C@H]3N[C@@H]4CC[C@H]3C4)c(F)c2)nn1 [Example 119] | 4500 | 51.2
2 | CC(=O)n1nc(-c2ccc(CC(C#N)NC(=O)[C@H]3N[C@@H]4CC[C@H]3C4)c(F)c2)cc1C (stereo partly drawn) [Example 7, (1S,2S,4R)—N-[2-[4-(1-acetyl-5-methyl-pyrazol-3-yl)-2-fluoro-phenyl]-1-cyano-ethyl]-3-azabicyclo[2.2.1]heptane-2-carboxamide] | 8000 | 1.9
3 | N#C[C@H](Cc1ccc(-c2cccc(C(N)=O)c2)cc1F)NC(=O)[C@H]1N[C@H]2C[C@@H]1[C@@H]1C[C@@H]12 [Example 146] | 9600 | 30.5
4 | N#CC(Cc1ccc(-c2ccc(S(N)(=O)=O)cc2)cc1F)NC(=O)[C@H]1N[C@@H]2CC[C@H]1C2 (stereo partly shown) [Example 56] | 4000 | 8.3
5 | Cc1ncc(-c2ccc(C[C@@H](C#N)NC(=O)[C@H]3N[C@H]4C[C@@H]3[C@@H]3C[C@@H]34)c(F)c2)s1 [Example 93] | 6900 | 18.3
6 | Cn1nc2ccccc2c1-c1ccc(C[C@@H](C#N)NC(=O)[C@H]2N[C@@H]3CC[C@H]2C3)c(F)c1 [Example 60] | 12300 | 8.7
7 | CCn1cc(-c2ccc(C[C@@H](C#N)NC(=O)[C@H]3N[C@@H]4CC[C@H]3C4)c(F)c2)cn1 [Example 26] | 3600 | 4
8 | N#C[C@H](Cc1ccc(-c2ccc3c(c2)C(=O)OC3)cc1F)NC(=O)[C@H]1N[C@@H]2CC[C@H]1C2 [Example 34] | 2500 | 4.6
9 | CC(=O)c1ccc(-c2ccc(CC(C#N)NC(=O)[C@H]3N[C@@H]4CC[C@H]3C4)c(F)c2)s1 (stereo partly shown) [Example 72] | 7300 | 10.8
10 | CC(C)CC(=O)n1cc(-c2ccc(C[C@@H](C#N)NC(=O)[C@H]3N[C@@H]4CC[C@H]3C4)c(F)c2)cn1 [Example 48] | 3300 | 7.2
11 | COc1cccc(-c2cn(-c3ccc(C[C@@H](C#N)NC(=O)[C@H]4N[C@@H]5CC[C@H]4C5)c(F)c3)nn2)c1 [Example 94] | 4900 | –
12 | CN1Cc2cc(-c3ccc(C[C@@H](C#N)NC(=O)[C@H]4N[C@H]5C[C@@H]4[C@@H]4C[C@@H]45)c(F)c3)ccc2C1=O [Example 149] | 7600 | 38.7
13 | CCn1cc(-c2ccc(C[C@@H](C#N)NC(=O)[C@H]3N[C@H]4C[C@@H]3[C@@H]3C[C@@H]34)c(F)c2)cn1 [Example 138] | 6400 | 14.5
14 | CC(C)n1cc(-c2ccc(CC(C#N)NC(=O)[C@H]3N[C@@H]4CC[C@H]3C4)c(F)c2)cn1 (stereo partly shown) [Example 68] | 7300 | –
15 | Cc1c(-c2ccc(C[C@@H](C#N)NC(=O)[C@H]3N[C@@H]4CC[C@H]3C4)c(F)c2)cnn1C [Example 39] | 7800 | –
16 | Cc1c(-c2ccc(C[C@@H](C#N)NC(=O)[C@H]3N[C@@H]4CC[C@H]3C4)c(F)c2)cnn1C [Example 65] | 11700 | –
17 | N#C[C@H](Cc1ccc(-c2cnc(C3CC3)s2)cc1F)NC(=O)[C@H]1N[C@@H]2CC[C@H]1C2 [Example 173] | – | 5.5
18 | N#C[C@H](Cc1ccc(-c2csc(C(=O)N3CCN(CC(F)(F)F)CC3)c2)cc1F)NC(=O)[C@H]1N[C@@H]2CC[C@H]1C2 [Example 232] | – | 2.2
19 | N#C[C@H](Cc1ccc(-c2ccc3c(c2)CC(=O)N3C2CCNCC2)cc1F)NC(=O)[C@H]1N[C@@H]2CC[C@H]1C2 [Example 334] | – | 22
20 | CN(C)CCN1C(=O)Cc2cc(-c3ccc(C[C@@H](C#N)NC(=O)[C@H]4N[C@@H]5CC[C@H]4C5)c(F)c3)ccc21 [Example 279] | – | 5.5
21 | N#C[C@H](Cc1ccc(-c2ccc(S(=O)(=O)N3CCOCC3)cc2)cc1F)NC(=O)[C@H]1N[C@@H]2CC[C@H]1C2 [Example 217] | – | 3.7
22 | N#Cc1cc2c(cc1C(F)(F)F)[nH]c(=O)c1cc(CC(C#N)NC(=O)[C@H]3N[C@@H]4CC[C@H]3C4)ccc12 (stereo partly shown) [Example 302] | – | 4.7
23 | N#C[C@H](Cc1ccc(-c2cnn3cccnc23)cc1F)NC(=O)[C@H]1N[C@@H]2CC[C@H]1C2 [Example 168] | – | 3.7

Row | SMILES | IC50 [1] [nM] | IC50 [2] [nM]
24 | CC(C)OCc1cn(-c2ccc(C[C@@H](C#N)NC(=O)[C@H]3N[C@@H]4CC[C@H]3C4)c(F)c2)nn1 [Example 124] | – | 187
25 | N#CC(Cc1ccc2c(c1)CCc1ccccc1-2)NC(=O)[C@H]1N[C@@H]2CC[C@H]1C2 (stereo partly shown) [Example 209] | – | 45.8
26 | CS(=O)(=Nc1cccc(-c2ccc(C[C@@H](C#N)NC(=O)[C@H]3N[C@@H]4CC[C@H]3C4)c(F)c2)c1)C1CCOCC1 (stereo partly shown) [Example 264] | – | 17
27 | N#C[C@H](Cc1ccc(-c2cnc3cccnn23)cc1F)NC(=O)[C@H]1N[C@@H]2CC[C@H]1C2 [Example 174] | – | 5.6
28 | CC(=O)Nc1ccc(-c2ccc(C[C@@H](C#N)NC(=O)[C@H]3N[C@H]4C[C@@H]3[C@@H]3C[C@@H]34)c(F)c2)cc1 [Example 131] | – | 139
29 | N#C[C@H](Cc1ccc(-c2ccc(C(=O)N3CCCCC3)cc2)cc1F)NC(=O)[C@H]1N[C@@H]2CC[C@H]1C2 [Example 210] | – | 49.4
30 | CN(C)C(=O)c1cnn(-c2ccc(C[C@@H](C#N)NC(=O)[C@H]3N[C@@H]4CC[C@H]3C4)c(F)c2)c1 [Example 286] | – | 38.9
31 | N#Cc1ccc2c(c1)[nH]c(=O)c1cc(CC(C#N)NC(=O)[C@H]3N[C@@H]4CC[C@H]3C4)ccc12 (stereo partly shown) [Example 309] | – | 9.1
32 | N#C[C@H](Cc1ccc(-c2cnn(S(=O)(=O)c3ccccc3)c2)cc1F)NC(=O)[C@H]1N[C@@H]2CC[C@H]1C2 [Example 243] | – | 4.8
33 | N#C[C@H](Cc1ccc(-c2cc[nH]c(=O)c2)cc1F)NC(=O)[C@H]1N[C@@H]2CC[C@H]1C2 [Example 257] | – | 39.9
34 | Cn1c(=O)c2cc(CC(C#N)NC(=O)[C@H]3N[C@@H]4CC[C@H]3C4)ccc2c2ccccc21 (stereo partly shown) [Example 206] | – | 26.3
35 | CN(C)CCn1ccc(-c2ccc(C[C@@H](C#N)NC(=O)[C@H]3N[C@@H]4CC[C@H]3C4)c(F)c2)cc1=O [Example 256] | – | 26.3
36 | CC1(C)CCN(c2ccc(C[C@@H](C#N)NC(=O)[C@H]3N[C@@H]4CC[C@H]3C4)c(F)c2)CC1 [Example 195] | – | 14.7
37 | Cn1ncc2cc(-c3ccc(C[C@@H](C#N)NC(=O)[C@H]4N[C@H]5C[C@@H]4[C@@H]4C[C@@H]45)c(F)c3)ccc21 [Example 137] | – | 59.7
38 | N#C[C@H](Cc1ccc(-n2cc(C(=O)N3CCOCC3)cn2)cc1F)NC(=O)[C@H]1N[C@@H]2CC[C@H]1C2 [Example 287] | – | 39.7
39 | N#Cc1ccc(-c2ccc(C[C@@H](C#N)NC(=O)[C@H]3N[C@H]4C[C@@H]3[C@@H]3C[C@@H]34)c(F)c2)cn1 [Example 142] | – | 63.1
40 | N#C[C@H](Cc1ccc(-c2ccc(S(=O)(=O)N3CCCCC3)cc2)cc1F)NC(=O)[C@H]1N[C@@H]2CC[C@H]1C2 [Example 177] | – | 7.4
41 | Cc1cc(-c2ccc(C[C@@H](C#N)NC(=O)[C@H]3N[C@@H]4CC[C@H]3C4)c(F)c2)n(C)n1 [Example 63] | 6200 | –
42 | N#C[C@H](Cc1ccc(N2CCN(C3CC3)CC2)cc1F)NC(=O)[C@H]1N[C@@H]2CC[C@H]1C2 [Example 187] | – | 9.8
43 | CN1CCN(S(=O)(=O)c2cc(-c3ccc(C[C@@H](C#N)NC(=O)[C@H]4N[C@@H]5CC[C@H]4C5)c(F)c3)ccc2F)CC1 [Example 339] | – | 1.3
44 | N#C[C@H](Cc1ccc(N2CCC3COCC3C2)cc1F)NC(=O)[C@H]1N[C@@H]2CC[C@H]1C2 (stereo partly shown) [Example 352] | – | 17.3
45 | Cc1cn(C)c(-c2ccc(C[C@@H](C#N)NC(=O)[C@H]3N[C@@H]4CC[C@H]3C4)c(F)c2)n1 [Example 208] | – | 29.8
46 | N#CC(Cc1ccc2oc3ccccc3c2c1)NC(=O)[C@H]1N[C@@H]2CC[C@H]1C2 (stereo partly shown) [Example 212] | – | 296
